Reference: PMC12147034, “Identification of alkynyl nicotinamide HSN748 as a RET solvent-front mutant inhibitor with intracranial efficacy” (RSC Medicinal Chemistry, 2025)
Like-named read-outs stand apart in the source and are kept apart here.

Experiment: In vivo pharmacokinetics and brain distribution in mice
Conditions: for Kp: CD1, mouse, brain and plasma, iv, 2 mg/kg
Description: For compound HSND19, male SD rats received an intravenous (IV) dose of 2 mg kg^−1 and an oral (PO) dose of 10 mg kg^−1. Both formulations were prepared in 10% DMSO/90% (20% HP-β-CD in water, w/w). Blood samples were collected at 0.25, 0.5, 1, 2, 4, 8, and 24 hours post-dosing. For compound HSN748, male SD rats received oral doses of 20, 50, and 100 mg kg^−1 in a solution of 0.5% methylcellulose (4000 cp)/0.1 M citrate buffer (pH 4.5). Blood samples were collected at 0.25, 0.5, 1, 2, 4, 6, 8, and 24 hours post-dosing. For IV administration, male CD1 mice received 2 mg kg^−1 prepared with 5% DMSO/5% Tween80/40% PEG400/50% PBS, with sampling at 0.083, 0.25, 0.5, 1, 2, 4, 8, and 24 hours.
In oral PK studies, blood samples were collected at each time point, with a total of 3 animals per study. In IV studies, animals were euthanized after blood collection at each time point to collect brain tissue, using a total of 21 animals per study. Whole blood samples were collected in heparinized tubes and centrifuged to separate plasma. Brain samples were rinsed, weighed, and immediately frozen in liquid nitrogen, and stored at −80 °C until analysis. The PK studies were conducted by Pharmaron (Beijing, China). Animal procedures were performed in accordance with the Guidelines for Care and Use of Laboratory Animals of Pharmaron (Beijing, China) and approved by the Animal Ethics Committee of Pharmaron (Beijing, China).
The mean concentration-time profiles were analyzed using Phoenix WinNonlin (version 8.4; Certara USA, Inc., Princeton, NJ) to calculate standard PK parameters, including the area under the curve from zero to infinity (AUC), bioavailability (F), clearance, volume of distribution, and half-life (t1/2).

[1] = male, CD1, plasma, Mouse, IV, 2 mg kg^-1

## CN1CCN(Cc2ccc(NC(=O)c3cncc(C#Cc4cnc5cccnn45)c3)cc2C(F)(F)F)CC1 [HSN748]
Mouse, IV, 2 mg kg^-1
  AUCBrain: 377 ng·h/mL
  brain-to-plasma partition coefficient (Kp), AUCbrain/AUCPlasma: 0.42
  peak brain concentrations: exceeding 198 ng ml^-1
male, 2 mg kg^-1, read-out: brain exposure as % of total plasma exposure (AUCplasma)
  Kp: ~0.42
male, 2 mg kg^-1, read-out: brain-to-plasma partition coefficient (Kp), AUCbrain/AUCPlasma
  Kp: 0.4
[1]
  Cmax: 513 ng/mL
  Tmax: 15 min
  clearance: 36.7 mL/min/kg
  half-life: 78 min
male, CD1, plasma, Mouse, IV, 2 mg kg^-1, read-out: AUCPlasma
  AUC: 907 ng·h/mL
male, CD1, plasma, Mouse, IV, 2 mg kg^-1, read-out: Vss
  Vd: 3.9 L/kg
